Assay results: PubChem BioAssay (NCI)
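Compound exposure: 48 hours, 5 concentrations, 96-well plates. The concentration for 50% growth inhibition is given as GI50. TGI: total growth inhibition.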

Test system: MDA-MB-468 breast
Assay: NCI tumour cell line growth inhibition, 48 h

Point of comparison: COc1cc(-c2nc3sccn3c2-c2ccnc(NCCNS(=O)(=O)c3ccc(Cl)cc3)n2)ccc1F, GI50 2480 nM. Against it:
- O=C(CSc1nc2sc3c(c2c(=O)n1-c1ccc(Cl)cc1)CCCC3)NNC(=O)Nc1ccc(Cl)c(C(F)(F)F)c1 — 1.6-fold lower, 1550 nM
- COc1ccc(C2CC(c3cccc(Nc4ccncc4)c3)=NN2c2ccc(Cl)cc2)cc1 (stereo not given) — 1.7-fold lower, 1450 nM
- O=c1c2c3c(sc2n2c(-c4cc(-c5ccccc5)no4)nnc2n1Cc1ccccc1)CCCC3 — 5.9-fold higher, 14600 nM
- CCN(CC)c1ccc(/C=C2/C[N+](C)(C)C/C(=C/c3ccc(N(CC)CC)cc3)C2=O)cc1 — 1.9-fold lower, 1320 nM
- N#C/C(=N\Nc1ccc(Cl)cc1)C(=O)Nc1cc(-c2ccccc2)nn1-c1ccccc1 — within 1.5-fold, 1840 nM
- Clc1ccc(/C=C/c2cc(N3CCOCC3)c3cc(Cl)c(Cl)cc3n2)cc1 — higher, > 100000 nM
- Cc1cc(NCCCNc2ccnc3cc(Cl)ccc23)nc(N2CCN(C)CC2)n1 — within 1.5-fold, 1760 nM
- O=S(=O)(Cc1ccc(Cl)cc1Cl)c1ccc(Cl)cc1 — 9.4-fold lower, 265 nM
- Oc1ccccc1/C=N/Nc1nc(N/N=C/c2ccccc2O)nc(N2CCOCC2)n1 — 1.7-fold higher, 4110 nM
- CC(C)[C@H]1CC[C@H]2[C@@H](CC[C@H]3[C@](C)(CN)CCC[C@]23C)C1 — 3.6-fold higher, 8830 nM
- O=c1c2ccccc2c(Br)c(Br)c2ccccc12 — within 1.5-fold, 2740 nM
- CC(=O)Nc1ccc(/C=C/C(=O)c2ccccc2)cc1 — 4.7-fold higher, 11700 nM
- COc1cccc(C2C3=C(COC3=O)N(CCO)c3cc(OC)ccc32)c1 (stereo not given) — 68-fold lower, 36.5 nM
- CCN1/C(=C/C=C/c2n(-c3ccccc3)c3ccc(-c4nc5ccccc5s4)cc3[n+]2CC)N(c2ccccc2)c2ccc(-c3nc4ccccc4s3)cc21 — 8.8-fold lower, 283 nM
- N/C(=C\C(=O)n1nc(-c2ccccc2)cc1N)c1ccccc1 — 2.2-fold higher, 5540 nM
- N#Cc1ncc(-c2ccc(C(F)(F)F)cc2)c(NCc2cc(C(F)(F)F)cc(C(F)(F)F)c2)n1 — within 1.5-fold, 2560 nM
- COc1cc2cc(C(=O)CCC(=O)O)sc2cc1OC — higher, > 100000 nM
- CN(Cc1ccc(Cl)cc1)c1ccc(CO)c(Cl)c1 — 38-fold lower, 65.7 nM
- CCCCCCc1cc2cc(-c3nc4ccccc4[nH]3)c(=Nc3ccccc3C)oc2cc1O — within 1.5-fold, 1820 nM
- CCCc1cc(O)c2c3c(c(=O)oc2c1)CN(C)CC3 — 9.8-fold higher, 24200 nM
- C/C=C/C/C=C/CCC(=O)[C@H]1O[C@H]1C(N)=O — 4.7-fold higher, 11700 nM
- c1ccc(C2CC(c3cccc(Nc4ccncc4)c3)=NN2c2ccccc2)cc1 (stereo not given) — 1.7-fold lower, 1490 nM
- Clc1cc2c(cc1Cl)Oc1cc(Cl)c(Cl)cc1O2 — not separable, > 625 nM
- CC(C)Nc1ccc(Nc2ccccc2)cc1 — 1.8-fold higher, 4450 nM
- CCOc1ccc(-c2cnnn2-c2nonc2-n2cccc2)cc1 — 21-fold lower, 120 nM
- COc1cc(C(=O)N2N=C(c3ccc(S(C)(=O)=O)cc3)CC2c2ccco2)cc(OC)c1OC (stereo not given) — within 1.5-fold, 2490 nM
- CN(c1cc2ncc(=O)[nH]c2cc1NC(N)=NCc1ccc(Cl)cc1)C1CCCCC1 — 2-fold lower, 1230 nM
- O=C(Nc1ccc(F)cc1)Nc1ccccc1CNc1nc(Nc2ccc(OCCN3CCCC3)cc2)ncc1Cl — 2.2-fold lower, 1120 nM
- CCCCCc1nc2c(c3c1CCCC3)CCCC2 — 1.7-fold higher, 4130 nM
- CC(=O)N1N=C(c2ccc(Nc3nc(Nc4ccc(Cl)cc4)nc(Nc4ccc(Cl)cc4)n3)cc2)CC1c1ccc([N+](=O)[O-])cc1 (stereo not given) — within 1.5-fold, 3080 nM
- N#Cc1cccc(OCc2nc(N)nc(N)c2-c2ccc(Cl)c(Cl)c2)c1 — within 1.5-fold, 3080 nM
- Cn1cc(C2=C(c3cn(CCO)c4ccccc34)C(=O)NC2=O)c2ccccc21 — within 1.5-fold, 2520 nM
- Cn1cc(C2=C(c3cccc(N)c3)C(=O)NC2=O)c2ccccc21 — higher, > 18200 nM
- CCOc1ccccc1NC(=O)c1cc2ccccc2cc1O — within 1.5-fold, 2380 nM
- Cn1ccnc1C(=O)/C=C/c1ccc(C(=O)Nc2ccc(S(F)(F)(F)(F)F)cc2)cc1 — 5.9-fold lower, 423 nM
- Cc1ccc2c(c1)c1nc3cc(C)c(C)cc3nc1n2CCN(C)C — 1.8-fold lower, 1390 nM
- Oc1ccc(CN2CCC(N3CCOCC3)CC2)c2cccnc12 — 9.1-fold higher, 22600 nM
- CC/C(=C(/c1ccc(OCCN(C)C)cc1)c1ccc(OC(=O)CCC(=O)c2c(C)[nH]c(/C=C3\N=C(c4ccc[nH]4)C=C3OC)c2C)cc1)c1ccccc1 — within 1.5-fold, 2900 nM
- Nc1ccccc1-c1ccc([N+](=O)[O-])cc1 — 5.4-fold higher, 13400 nM
- O=C1C2C(C(=O)[N]1[Hg][c]1cccs1)C1(Cl)C(Cl)=C(Cl)C2(Cl)C1(Cl)Cl (stereo not given) — 2-fold lower, 1250 nM
- Cc1cc2cc3cc(C)c(N(C)C)cc3[n+](C)c2cc1N(C)C — 2.6-fold lower, 950 nM
- CC(C)c1c(C(=O)Nc2ccccc2)c(-c2ccccc2)c(-c2ccc(F)cc2)n1CC[C@@H]1CC=CC(=O)O1 — within 1.5-fold, 1830 nM
- Cc1ccc(NC(=O)Cc2ccc(/C=C/C(=O)c3ncc[nH]3)cc2)cc1 — within 1.5-fold, 3300 nM
- O=c1ccc(N=Nc2ccc([N+](=O)[O-])cc2)ccc1O — 1.5-fold higher, 3800 nM

Point of comparison: CC/C(=C(/c1ccc(OCCN(C)C)cc1)c1ccc(OC(=O)CCC(=O)c2c(C)[nH]c(/C=C3\N=C(c4ccc[nH]4)C=C3OC)c2C)cc1)c1ccccc1, TGI 14 µM. Against it:
- O=C(CSc1nc2sc3c(c2c(=O)n1-c1ccc(Cl)cc1)CCCC3)NNC(=O)Nc1ccc(Cl)c(C(F)(F)F)c1 — 3.8-fold lower, 3.66 µM
- COc1ccc(C2CC(c3cccc(Nc4ccncc4)c3)=NN2c2ccc(Cl)cc2)cc1 (stereo not given) — 4.7-fold lower, 2.95 µM
- O=c1c2c3c(sc2n2c(-c4cc(-c5ccccc5)no4)nnc2n1Cc1ccccc1)CCCC3 — 3.1-fold higher, 43.8 µM
- CCN(CC)c1ccc(/C=C2/C[N+](C)(C)C/C(=C/c3ccc(N(CC)CC)cc3)C2=O)cc1 — 3.9-fold lower, 3.57 µM
- N#C/C(=N\Nc1ccc(Cl)cc1)C(=O)Nc1cc(-c2ccccc2)nn1-c1ccccc1 — 2.4-fold lower, 5.93 µM
- Clc1ccc(/C=C/c2cc(N3CCOCC3)c3cc(Cl)c(Cl)cc3n2)cc1 — higher, > 100 µM
- Cc1cc(NCCCNc2ccnc3cc(Cl)ccc23)nc(N2CCN(C)CC2)n1 — 2.3-fold lower, 5.97 µM
- O=S(=O)(Cc1ccc(Cl)cc1Cl)c1ccc(Cl)cc1 — 6.4-fold lower, 2.19 µM
- Oc1ccccc1/C=N/Nc1nc(N/N=C/c2ccccc2O)nc(N2CCOCC2)n1 — 2.6-fold higher, 35.9 µM
- CC(C)[C@H]1CC[C@H]2[C@@H](CC[C@H]3[C@](C)(CN)CCC[C@]23C)C1 — 1.7-fold higher, 23.5 µM
- COc1cc(-c2nc3sccn3c2-c2ccnc(NCCNS(=O)(=O)c3ccc(Cl)cc3)n2)ccc1F — higher, > 100 µM
- O=c1c2ccccc2c(Br)c(Br)c2ccccc12 — within 1.5-fold, 9.55 µM
- CC(=O)Nc1ccc(/C=C/C(=O)c2ccccc2)cc1 — 1.9-fold higher, 26 µM
- COc1cccc(C2C3=C(COC3=O)N(CCO)c3cc(OC)ccc32)c1 (stereo not given) — 11-fold lower, 1.26 µM
- CCN1/C(=C/C=C/c2n(-c3ccccc3)c3ccc(-c4nc5ccccc5s4)cc3[n+]2CC)N(c2ccccc2)c2ccc(-c3nc4ccccc4s3)cc21 — higher, > 50 µM
- N/C(=C\C(=O)n1nc(-c2ccccc2)cc1N)c1ccccc1 — 4-fold higher, 56.3 µM
- N#Cc1ncc(-c2ccc(C(F)(F)F)cc2)c(NCc2cc(C(F)(F)F)cc(C(F)(F)F)c2)n1 — 1.9-fold lower, 7.38 µM
- COc1cc2cc(C(=O)CCC(=O)O)sc2cc1OC — higher, > 100 µM
- CN(Cc1ccc(Cl)cc1)c1ccc(CO)c(Cl)c1 — 64-fold lower, 0.219 µM
- CCCCCCc1cc2cc(-c3nc4ccccc4[nH]3)c(=Nc3ccccc3C)oc2cc1O — 3.7-fold lower, 3.74 µM
- CCCc1cc(O)c2c3c(c(=O)oc2c1)CN(C)CC3 — 6.1-fold higher, 85.2 µM
- C/C=C/C/C=C/CCC(=O)[C@H]1O[C@H]1C(N)=O — 1.8-fold higher, 25.9 µM
- c1ccc(C2CC(c3cccc(Nc4ccncc4)c3)=NN2c2ccccc2)cc1 (stereo not given) — 4.6-fold lower, 3.02 µM
- Clc1cc2c(cc1Cl)Oc1cc(Cl)c(Cl)cc1O2 — not separable, > 0.625 µM
- CC(C)Nc1ccc(Nc2ccccc2)cc1 — within 1.5-fold, 19.7 µM
- CCOc1ccc(-c2cnnn2-c2nonc2-n2cccc2)cc1 — 28-fold lower, 0.495 µM
- COc1cc(C(=O)N2N=C(c3ccc(S(C)(=O)=O)cc3)CC2c2ccco2)cc(OC)c1OC (stereo not given) — higher, > 26 µM
- CN(c1cc2ncc(=O)[nH]c2cc1NC(N)=NCc1ccc(Cl)cc1)C1CCCCC1 — 3.2-fold lower, 4.42 µM
- O=C(Nc1ccc(F)cc1)Nc1ccccc1CNc1nc(Nc2ccc(OCCN3CCCC3)cc2)ncc1Cl — 4.8-fold lower, 2.89 µM
- CCCCCc1nc2c(c3c1CCCC3)CCCC2 — within 1.5-fold, 18.1 µM
- CC(=O)N1N=C(c2ccc(Nc3nc(Nc4ccc(Cl)cc4)nc(Nc4ccc(Cl)cc4)n3)cc2)CC1c1ccc([N+](=O)[O-])cc1 (stereo not given) — higher, > 100 µM
- N#Cc1cccc(OCc2nc(N)nc(N)c2-c2ccc(Cl)c(Cl)c2)c1 — higher, > 100 µM
- Cn1cc(C2=C(c3cn(CCO)c4ccccc34)C(=O)NC2=O)c2ccccc21 — within 1.5-fold, 10.8 µM
- Cn1cc(C2=C(c3cccc(N)c3)C(=O)NC2=O)c2ccccc21 — higher, > 25 µM
- CCOc1ccccc1NC(=O)c1cc2ccccc2cc1O — 1.9-fold lower, 7.18 µM
- Cn1ccnc1C(=O)/C=C/c1ccc(C(=O)Nc2ccc(S(F)(F)(F)(F)F)cc2)cc1 — within 1.5-fold, 13.8 µM
- Cc1ccc2c(c1)c1nc3cc(C)c(C)cc3nc1n2CCN(C)C — 4-fold lower, 3.54 µM
- Oc1ccc(CN2CCC(N3CCOCC3)CC2)c2cccnc12 — 4.3-fold higher, 60.6 µM
- Nc1ccccc1-c1ccc([N+](=O)[O-])cc1 — higher, > 100 µM
- O=C1C2C(C(=O)[N]1[Hg][c]1cccs1)C1(Cl)C(Cl)=C(Cl)C2(Cl)C1(Cl)Cl (stereo not given) — 5.2-fold lower, 2.7 µM
- Cc1cc2cc3cc(C)c(N(C)C)cc3[n+](C)c2cc1N(C)C — within 1.5-fold, 13.5 µM
- CC(C)c1c(C(=O)Nc2ccccc2)c(-c2ccccc2)c(-c2ccc(F)cc2)n1CC[C@@H]1CC=CC(=O)O1 — 3.7-fold lower, 3.82 µM
- Cc1ccc(NC(=O)Cc2ccc(/C=C/C(=O)c3ncc[nH]3)cc2)cc1 — 1.7-fold higher, 23.4 µM
- O=c1ccc(N=Nc2ccc([N+](=O)[O-])cc2)ccc1O — 5.8-fold higher, 81.2 µM
